Results from US4639433A, “Glycopeptide derivatives” (Eli Lilly and Company, priority 1985, dated 1987).
In brackets after ≈: the same amount, converted by molar mass.

Assays:
Escherichia coli EC14 = conditions: agar dilution
Streptococcus pneumoniae = test: Experimental bacterial infection in mice, ED50; assay type: in vivo; conditions: two doses, administered subcutaneously
[1] = tested on: Streptococcus sp. group D 2041; conditions: agar dilution
[2] = tested on: Staphylococcus aureus NRRL B313; conditions: agar dilution
Streptococcus pyogenes = test: Experimental bacterial infection in mice, ED50; assay type: in vivo; conditions: two doses, administered subcutaneously
[3] = tested on: Klebsiella pneumoniae X68; conditions: agar dilution
[4] = tested on: Klebsiella pneumoniae KAE; conditions: agar dilution
[5] = tested on: Streptococcus pneumoniae Park 1; conditions: agar dilution
[6] = tested on: Staphylococcus epidermidis 222; conditions: agar dilution
[7] = tested on: Staphylococcus aureus S13E; conditions: agar dilution
[8] = tested on: Streptococcus faecium ATCC 9790; conditions: agar dilution
[9] = tested on: Streptococcus pyogenes C203; conditions: agar dilution
[10] = tested on: Klebsiella pneumoniae X26; conditions: agar dilution
Escherichia coli TEM = conditions: agar dilution
[11] = tested on: Staphylococcus aureus X400; conditions: agar dilution
Staphylococcus aureus = test: Experimental bacterial infection in mice, ED50; assay type: in vivo; conditions: two doses, administered subcutaneously
[12] = tested on: Haemophilus influenzae 76; conditions: agar dilution
Escherichia coli N10 = conditions: agar dilution
[13] = tested on: Staphylococcus epidermidis EPI1; conditions: agar dilution
[14] = tested on: Staphylococcus aureus V41; conditions: agar dilution
[15] = tested on: Haemophilus influenzae C.L.; conditions: agar dilution

Structure (SMILES)	MIC (Escherichia coli EC14)	ED50 (Streptococcus pneumoniae)	MIC [1] [µg/mL]	MIC [2] [µg/mL]	ED50 (Streptococcus pyogenes)	MIC [3]	MIC [4]	MIC [5] [µg/mL]	MIC [6] [µg/mL]	MIC [7] [µg/mL]	MIC [8] [µg/mL]	MIC [9] [µg/mL]	MIC [10]	MIC (Escherichia coli TEM)	MIC [11] [µg/mL]	MIC [12]	MIC (Escherichia coli N10)	MIC [13] [µg/mL]	MIC [14] [µg/mL]	MIC [15]	further results
CCCCCC(=O)NC1(C)CC(OC2C(Oc3c4cc5cc3Oc3ccc(cc3Cl)C(O)C3NC(=O)C(NC(=O)C5NC(=O)C(CC(N)=O)NC(=O)C(NC(=O)C(CC(C)C)NC)C(O)c5ccc(c(Cl)c5)O4)c4ccc(O)c(c4)-c4c(O)cc(O)cc4C(C(=O)O)NC3=O)OC(CO)C(O)C2O)OC(C)C1O (stereo not drawn) [Compound 2, N^van --(1-oxo-n-hexyl)vancomycin]	-- (not active at 128 mcg/ml)	3.5 mg/kg/2	16 (≈ 10.3 µM)	2 (≈ 1.29 µM)	12.9 mg/kg/2	-- (not active at 128 mcg/ml)	-- (not active at 128 mcg/ml)	2 (≈ 1.29 µM)	8 (≈ 5.17 µM)	4 (≈ 2.58 µM)	4 (≈ 2.58 µM)	2 (≈ 1.29 µM)	-- (not active at 128 mcg/ml)	-- (not active at 128 mcg/ml)	4 (≈ 2.58 µM)	128 µg/mL (≈ 82.7 µM)	-- (not active at 128 mcg/ml)	16 (≈ 10.3 µM)	4 (≈ 2.58 µM)	-- (not active at 128 mcg/ml)	ED50 (Staphylococcus aureus): 11.2 mg/kg/2
CN[C@H](CC(C)C)C(=O)N[C@H]1C(=O)N[C@@H](CC(N)=O)C(=O)N[C@H]2C(=O)N[C@H]3C(=O)N[C@H](C(=O)N[C@H](C(=O)O)c4cc(O)cc(O)c4-c4cc3ccc4O)[C@H](O)c3ccc(c(Cl)c3)Oc3cc2cc(c3O[C@@H]2O[C@H](CO)[C@@H](O)[C@H](O)[C@H]2O[C@H]2C[C@](C)(N)[C@H](O)[C@H](C)O2)Oc2ccc(cc2Cl)[C@H]1O [vancomycin, reference compound]		0.90-0.93 mg/kg/2			0.99-1.1 mg/kg/2																ED50 (Staphylococcus aureus): 1.8-3.7 mg/kg/2
CCCCCCCCCC(=O)NC1(C)CC(OC2C(Oc3c4cc5cc3Oc3ccc(cc3Cl)C(O)C3NC(=O)C(NC(=O)C5NC(=O)C(CC(N)=O)NC(=O)C(NC(=O)C(CC(C)C)NC)C(O)c5ccc(c(Cl)c5)O4)c4ccc(O)c(c4)-c4c(O)cc(O)cc4C(C(=O)O)NC3=O)OC(CO)C(O)C2O)OC(C)C1O (stereo not drawn) [Compound 6, N^van-(1-oxo-n-Decyl)vancomycin]	-- (not active at 128 mcg/ml)	1.4 mg/kg/2	1 (≈ 0.624 µM)	0.5 (≈ 0.312 µM)	2.9 mg/kg/2	-- (not active at 128 mcg/ml)	-- (not active at 128 mcg/ml)	1 (≈ 0.624 µM)	1 (≈ 0.624 µM)	0.5 (≈ 0.312 µM)	0.5 (≈ 0.312 µM)	0.5 (≈ 0.312 µM)	-- (not active at 128 mcg/ml)	-- (not active at 128 mcg/ml)	0.5 (≈ 0.312 µM)	-- (not active at 128 mcg/ml)	-- (not active at 128 mcg/ml)	2 (≈ 1.25 µM)	0.5 (≈ 0.312 µM)	-- (not active at 128 mcg/ml)	ED50 (Staphylococcus aureus): 5 mg/kg/2
CCCCCCCCCCCC(=O)NC1(C)CC(OC2C(Oc3c4cc5cc3Oc3ccc(cc3Cl)C(O)C3NC(=O)C(NC(=O)C5NC(=O)C(CC(N)=O)NC(=O)C(NC(=O)C(CC(C)C)NC)C(O)c5ccc(c(Cl)c5)O4)c4ccc(O)c(c4)-c4c(O)cc(O)cc4C(C(=O)O)NC3=O)OC(CO)C(O)C2O)OC(C)C1O (stereo not drawn) [Compound 12, N^van --(1-oxo-n-dodecyl)vancomycin]	-- (not active at 128 mcg/ml)	0.9 mg/kg/2	0.5 (≈ 0.306 µM)	0.25 (≈ 0.153 µM)	1.6 mg/kg/2	-- (not active at 128 mcg/ml)	-- (not active at 128 mcg/ml)	0.5 (≈ 0.306 µM)	0.5 (≈ 0.306 µM)	0.5 (≈ 0.306 µM)	0.5 (≈ 0.306 µM)	0.5 (≈ 0.306 µM)	-- (not active at 128 mcg/ml)	-- (not active at 128 mcg/ml)	0.5 (≈ 0.306 µM)	-- (not active at 128 mcg/ml)	-- (not active at 128 mcg/ml)	2 (≈ 1.23 µM)	0.25 (≈ 0.153 µM)	-- (not active at 128 mcg/ml)	ED50 (Staphylococcus aureus): 6.8 mg/kg/2
C=CCCCCCCCCC(=O)N(C)C(CC(C)C)C(=O)NC1C(=O)NC(CC(N)=O)C(=O)NC2C(=O)NC3C(=O)NC(C(=O)NC(C(=O)O)c4cc(O)cc(O)c4-c4cc3ccc4O)C(O)c3ccc(c(Cl)c3)Oc3cc2cc(c3OC2OC(CO)C(O)C(O)C2OC2CC(C)(N)C(O)C(C)O2)Oc2ccc(cc2Cl)C1O (stereo not drawn) [Compound 10, N^leu --(1-oxo-10-n-decenyl)vancomycin]	-- (not active at 128 mcg/ml)		4 (≈ 2.48 µM)	4 (≈ 2.48 µM)		-- (not active at 128 mcg/ml)	-- (not active at 128 mcg/ml)	2 (≈ 1.24 µM)	8 (≈ 4.95 µM)	4 (≈ 2.48 µM)	2 (≈ 1.24 µM)	1 (≈ 0.619 µM)	-- (not active at 128 mcg/ml)	-- (not active at 128 mcg/ml)	4 (≈ 2.48 µM)	-- (not active at 128 mcg/ml)	-- (not active at 128 mcg/ml)	32 (≈ 19.8 µM)	4 (≈ 2.48 µM)	-- (not active at 128 mcg/ml)	
CNC(CC(C)C)C(=O)NC1C(=O)NC(CC(N)=O)C(=O)NC2C(=O)NC3C(=O)NC(C(=O)NC(C(=O)O)c4cc(O)cc(O)c4-c4cc3ccc4O)C(O)c3ccc(c(Cl)c3)Oc3cc2cc(c3OC2OC(CO)C(O)C(O)C2OC2CC(C)(NC(=O)C(NC(=O)OCc3ccccc3)C(C)C)C(O)C(C)O2)Oc2ccc(cc2Cl)C1O (stereo not drawn) [Compound 32, N^van-[2-(N--Cbz--amino)-1-oxo-isopentyl]vancomycin]	-- (not active at 128 mcg/ml)		8 (≈ 4.75 µM)	4 (≈ 2.38 µM)		-- (not active at 128 mcg/ml)	-- (not active at 128 mcg/ml)	2 (≈ 1.19 µM)	8 (≈ 4.75 µM)	4 (≈ 2.38 µM)	4 (≈ 2.38 µM)	2 (≈ 1.19 µM)	-- (not active at 128 mcg/ml)	-- (not active at 128 mcg/ml)	8 (≈ 4.75 µM)	128 µg/mL (≈ 76.1 µM)	-- (not active at 128 mcg/ml)	32 (≈ 19 µM)	4 (≈ 2.38 µM)	128 µg/mL (≈ 76.1 µM)	
CNC(CC(C)C)C(=O)NC1C(=O)NC(CC(N)=O)C(=O)NC2C(=O)NC3C(=O)NC(C(=O)NC(C(=O)O)c4cc(O)cc(O)c4-c4cc3ccc4O)C(O)c3ccc(c(Cl)c3)Oc3cc2cc(c3OC2OC(CO)C(O)C(O)C2OC2CC(C)(NC(=O)C(N)C(C)C)C(O)C(C)O2)Oc2ccc(cc2Cl)C1O (stereo not drawn) [Compound 33, N^van --(2-amino-1-oxo-isopentyl)vancomycin]	-- (not active at 128 mcg/ml)		32 (≈ 20.7 µM)	8 (≈ 5.17 µM)		-- (not active at 128 mcg/ml)	-- (not active at 128 mcg/ml)	8 (≈ 5.17 µM)	32 (≈ 20.7 µM)	8 (≈ 5.17 µM)	8 (≈ 5.17 µM)	8 (≈ 5.17 µM)	-- (not active at 128 mcg/ml)	-- (not active at 128 mcg/ml)	32 (≈ 20.7 µM)	-- (not active at 128 mcg/ml)	-- (not active at 128 mcg/ml)	32 (≈ 20.7 µM)	8 (≈ 5.17 µM)	-- (not active at 128 mcg/ml)	
CNC(CC(C)C)C(=O)NC1C(=O)NC(CC(N)=O)C(=O)NC2C(=O)NC3C(=O)NC(C(=O)NC(C(=O)O)c4cc(O)cc(O)c4-c4cc3ccc4O)C(O)c3ccc(c(Cl)c3)Oc3cc2cc(c3OC2OC(CO)C(O)C(O)C2OC2CC(C)(NC(=O)CCCCCBr)C(O)C(C)O2)Oc2ccc(cc2Cl)C1O (stereo not drawn) [Compound 35, N^van --(6-bromo-n-hexyl)vancomycin]	-- (not active at 128 mcg/ml)		8 (≈ 4.92 µM)	2 (≈ 1.23 µM)		-- (not active at 128 mcg/ml)	-- (not active at 128 mcg/ml)	1 (≈ 0.615 µM)	4 (≈ 2.46 µM)	2 (≈ 1.23 µM)	2 (≈ 1.23 µM)	2 (≈ 1.23 µM)	-- (not active at 128 mcg/ml)	-- (not active at 128 mcg/ml)	4 (≈ 2.46 µM)	-- (not active at 128 mcg/ml)	-- (not active at 128 mcg/ml)	8 (≈ 4.92 µM)	2 (≈ 1.23 µM)	-- (not active at 128 mcg/ml)	
